These results are taken from patent US6603031B1, “Vitamin D derivatives with cyclic substructures in the side chains, process and intermediate products for their production, and the use for the production of pharmaceutical agents” (Schering Aktiengesellschaft, priority 1999, dated 2003).

The structures appear in SMILES notation. Where two headings read alike, the source gives them in different places.

For one data set, the system named is HL 60 cells. Description: differentiation induction of HL 60 cells to macrophages (NBT reduction). Type of data set: cell-based, human. The settings on record: 96 hours incubation, reference calcitriol. The method, then: The differentiation-stimulating action of calcitriol analogues is also detected quantitatively.
It is known in the literature [D. J. Mangelsdorf et al., J. Cell. Biol. 98: 391 (1984)] that the treatment of human leukemia cells (promyelocyte cell line HL 60) in vitro with calcitriol induces the differentiation of cells to macrophages.
HL 60 cells are cultivated in tissue culture medium (RPMI 10% fetal calf serum) at 37° C. in an atmosphere of 5% CO2 in air.
For substance testing, the cells are centrifuged off, and 2.0×10^5 cells/ml in phenol red-free tissue culture medium is taken up. The test substances are dissolved in ethanol and diluted with tissue culture medium without phenol red to the desired concentration. The dilution stages are mixed with the cell suspension at a ratio of 1:10, and 100 μl each of this cell suspension that is mixed with substance is pipetted into an indentation of a 96-hole plate. For control, a cell suspension is mixed analogously with the solvent.
After incubation for 96 hours at 37° C. in 5% CO2 in air, 100 μl of an NBT-TPA solution (nitro blue tetrazolium (NBT), final concentration in the batch of 1 mg/ml, tetradecanoyl phorbolmyristate-13-acetate (TPA), final concentration in the batch of 2×10^−7 mol/l) is pipetted into each indentation of the 96-hole plate in the cell suspension.
By incubation for 2 hours at 37° C. and 5% CO2 in air, NBT is reduced to insoluble formazan because of the intracellular oxygen radical release, stimulated by TPA, in the cells that are differentiated to macrophages.
To complete the reaction, the indentations of the 96-hole plate are suctioned off, and the cells are affixed to the bottom of the plate by adding methanol and dried after affixing. To dissolve the intracellular formazan crystals that are formed, 100 μl of potassium hydroxide (2 mol/l) and 100 μl of dimethyl sulfoxide are pipetted into each indentation and ultrasonically treated for 1 minute. The concentration of formazan is measured by spectrophotometry at 650 nm.
As a yardstick for the differentiation induction of HL 60 cells to macrophages, the concentration of formed formazan applies.

Data set [1] can be described thus: acute hypercalcemic action after one-time subcutaneous administration (serum calcium). The settings on record: male rats, reference calcitriol.
Experimental: (§1) To determine the acute hypercalcemic action of various calcitriol derivatives, the test that is described below is carried out:
(§2) During the testing time, the rats are kept in special cages to determine the excretion-of water-and mineral substances. Urine is collected in 2 fractions (0-16 hours and 16-22 hours). An oral dose of calcium (0.1 mmol of calcium in 6.5% alpha-hydroxypropyl-cellulose, 5 ml/animal) replaces at 1600 hours the calcium intake that is lacking by food deprivation. At the end of the test, the animals are killed by decapitation and exsanguinated to determine the serum-calcium values. For the primary screen test in vivo, an individual standard dose (200 μg/kg) is tested. For selected substances, the result is supported by establishing a dose-effect relation.
(§3) The significance of differences occurring between substance groups and controls and between test substance and reference substance are supported with suitable statistical processes.
For data set [2] the following is noted: rat, in vivo, sc.
Experimental: as §1, §2, §3
A further data set deals with T1, vitamin D receptor (Sus scrofa, UniProt A3RGC1).
T1 sequence (A3RGC1 1-427): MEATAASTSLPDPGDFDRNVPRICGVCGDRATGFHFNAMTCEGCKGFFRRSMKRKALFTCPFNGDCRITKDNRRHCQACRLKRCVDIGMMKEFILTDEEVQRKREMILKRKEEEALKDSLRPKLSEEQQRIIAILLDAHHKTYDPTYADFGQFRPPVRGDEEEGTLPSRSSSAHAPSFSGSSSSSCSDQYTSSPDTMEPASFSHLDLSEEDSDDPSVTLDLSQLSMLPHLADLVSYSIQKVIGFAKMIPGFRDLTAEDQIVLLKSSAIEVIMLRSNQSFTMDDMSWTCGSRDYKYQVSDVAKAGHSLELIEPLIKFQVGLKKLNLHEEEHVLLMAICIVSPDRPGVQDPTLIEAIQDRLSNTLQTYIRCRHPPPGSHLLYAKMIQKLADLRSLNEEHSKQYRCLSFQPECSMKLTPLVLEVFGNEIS
Nature of the data set: calcitriol-receptor test (competition with 3H-calcitriol). To be noted: protein extract from intestines of juvenile pigs.

Experimental for vitamin D receptor: The vitamin D activity of the substances according to the invention is determined with the aid of the calcitriol-receptor test. It is carried out using a protein extract from the intestines of juvenile pigs. […] To this end, 250 μl of a charcoal-dextran suspension is fed to each test tube and incubated at 4° C. for 20 minutes. Then, the samples are centrifuged at 10,000 g for 5 minutes at 40° C. The supernatant is decanted and measured in a β-counter after 1 hour of equilibration in Picofluor 15™.
The competition curves that are obtained at various concentrations of test substance as well as of reference substance (unlabeled calcitriol) at constant concentration of the reference substance (^3H-calcitriol) are placed in relation to one another, and a competition factor (KF) is determined.
It is defined as a quotient of the concentrations of the respective test substance and the reference substance, which are necessary for 50% competition:
KF=Concentration of test substance at 50% competition/Concentration of reference substance at 50% competition

In the case of `C=C1/C(=C\C=C2/CCC[C@]3(C)[C@@H]([C@H](C)CCCC(C)(C)O)CC[C@@H]23)C[C@@H](O)C[C@@H]1O` [Calcitriol, 1,25-dihydroxy vitamin D3, reference compound], in the data set with HL 60 cells, the “DR (HL 60) (dose ratio test substance/reference substance for comparable semi-maximum actions)” value was 1. For the same compound, the “DR (Ca) (dose ratio for hypercalcemia, test substance dose/reference substance dose for comparable actions)” value in data set [1] is 1.

`C[C@H](CCC[C@H](O)c1cccs1)[C@H]1CC[C@H]2/C(=C/C=C3C[C@@H](O)C[C@H](O)C3)CCC[C@]12C` [55b, (7E)-(1R,3R,24aS)-24a-(thien-2-yl)-24a-homo-19-nor-9,10-secochola-5,7-diene-1,3,24a-triol]: in data set [2], the “DR (Ca) (dose ratio for hypercalcemia, test substance dose/reference substance dose for comparable actions)” value is greater than 100. Moreover, the “KF (competition factor: concentration of test substance / reference substance at 50% competition)” value at vitamin D receptor came to 5. Besides, the “DR (HL 60) (dose ratio test substance/reference substance for comparable semi-maximum actions)” value in the data set with HL 60 cells amounted to 8.

As for `CC(CCCC(O)c1cocn1)C1CCC2C(=CC=C3CC(O)CC(O)C3)CCCC21C` [16a, (7E)-(1R,3R,24aR)-24a-(Oxazol-4-yl)-24a-homo-19-nor-9,10-secochola-5,7-diene-1,3,24a-triol], the “DR (Ca) (dose ratio for hypercalcemia, test substance dose/reference substance dose for comparable actions)” value in data set [2] was greater than 30. Besides, the “KF (competition factor: concentration of test substance / reference substance at 50% competition)” value on vitamin D receptor turned out to be 5. Also, in the data set on HL 60 cells, the “DR (HL 60) (dose ratio test substance/reference substance for comparable semi-maximum actions)” value is recorded as 5.

For the compound `C[C@H](CCCC(=O)c1cccs1)[C@H]1CC[C@H]2/C(=C/C=C3C[C@@H](O)C[C@H](O)C3)CCC[C@]12C` [compound 57, (7E)-(1R,3R)-1,3-Dihydroxy-24a-(thien-2-yl)-24a-homo-19-nor-9,10-secochola-5,7-dien-24a-one], the “DR (Ca) (dose ratio for hypercalcemia, test substance dose/reference substance dose for comparable actions)” value in data set [2] is listed as greater than 350. In addition, on vitamin D receptor, the “KF (competition factor: concentration of test substance / reference substance at 50% competition)” value is 12. Moreover, the “DR (HL 60) (dose ratio test substance/reference substance for comparable semi-maximum actions)” value in the data set with HL 60 cells was found to be 2.

Turning to `C=C1C(=CC=C2CCCC3(C)C2CCC3C(C)CCCC(O)c2cocn2)CC(O)CC1O` [20a, (5Z,7E)-(1S,3R,24aR)-24a-(Oxazol-4-yl)-24a-homo-9,10-secochola-5,7,10(19)-triene-1,3,24a-triol], the “KF (competition factor: concentration of test substance / reference substance at 50% competition)” value on vitamin D receptor was 3. In addition, the “DR (HL 60) (dose ratio test substance/reference substance for comparable semi-maximum actions)” value in the data set with HL 60 cells stood at 2. For the same compound, the “DR (Ca) (dose ratio for hypercalcemia, test substance dose/reference substance dose for comparable actions)” value in data set [1] is greater than 50.

For the compound `C=C1C(=CC=C2CCCC3(C)C2CCC3C(C)CCC(O)c2nccs2)CC(O)CC1O` [217a, (5Z,7E)-(1S,3R,24S)-24-(Thiazol-2-yl)-9,10-secochola-5,7,10(19)-triene-1,3,24-triol], the “DR (Ca) (dose ratio for hypercalcemia, test substance dose/reference substance dose for comparable actions)” value in data set [2] is listed as greater than 300. Further, the “KF (competition factor: concentration of test substance / reference substance at 50% competition)” value on vitamin D receptor stood at 7. Moreover, the “DR (HL 60) (dose ratio test substance/reference substance for comparable semi-maximum actions)” value in the data set on HL 60 cells came to 100.
